In US12545668B2, “Cyclic amine derivative as agent for promoting advillin function, and novel cyclic amine derivative and pharmaceutical use thereof” (Toray Industries, Inc., priority 2018, dated 2026):

What was measured:
[1] = Specific binding of 3H-labeled compound to membrane fraction prepared from rat sciatic nerve; conditions: 3H-labeled compound of Example 7, 37° C., 1 hour; relative to dorsal root ganglion
Protocol: (§1) A binding property of a ^3H-labeled cyclic amine derivative (I) to each of membrane fractions prepared from various tissues of a rat was evaluated, and thus, a tissue containing a molecular target of the cyclic amine derivative (I) was clarified.
(§2) As the cyclic amine derivative (I), the compound of Example 7 was used.
(§3) Male SD rats (manufactured by Charles River Laboratories Japan, Inc.) of 7 weeks old were used. Rats were anesthetized with isoflurane, and euthanized by exsanguination from the abdominal aorta using a syringe having an inner wall treated with a heparin sodium injection (manufactured by AY Pharmaceuticals Co., Ltd.). […]
(§4) A homogenate sample of each tissue thus collected was prepared, using a homogenizer, by adding a homogenize buffer (sucrose (1 M), Tris-HCl (0.5 M), and 1× protease inhibitor cocktail (manufactured by Sigma Aldrich), pH 7.6) to the collected tissue. […] The resultant supernatant was ultracentrifuged at 100,000×g at 4° C. for 60 minutes, and the thus obtained precipitate was suspended in Krebs-Ringer bicarbonate buffer (manufactured by Sigma Aldrich) to quantitatively determine the amount of protein using a BCA protein assay kit (manufactured by Thermo Fisher Scientific K.K.). […]

[2] = Specific binding of 3H-labeled compound to membrane fraction prepared from rat spinal cord; conditions: 3H-labeled compound of Example 7, 37° C., 1 hour; relative to dorsal root ganglion
Protocol: as §1, §2, §3, §4

[3] = Specific binding of 3H-labeled compound to membrane fraction prepared from rat brainstem; conditions: 3H-labeled compound of Example 7, 37° C., 1 hour; relative to dorsal root ganglion
Protocol: as §1, §2, §3, §4

[4] = Specific binding of 3H-labeled compound to membrane fractions prepared from the other rat tissues; conditions: 3H-labeled compound of Example 7, 37° C., 1 hour; relative to dorsal root ganglion
Protocol: as §1, §2, §3, §4

[5] = tested on: sciatic nerve of a rat spinal nerve ligation model; assay: Actin filament/actin monomer ratio in the sciatic nerve of rat spinal nerve ligation model; format: in vivo
Source text: The effect of the cyclic amine derivative (I) or a pharmacologically acceptable salt thereof on a ratio between the amount of actin filaments and the amount of actin monomers in the sciatic nerve of a rat spinal nerve ligation model was examined.
Male SD rats (manufactured by Charles River Laboratories Japan, Inc.) of 6 weeks old were used. Each rat spinal nerve ligation model was produced by resecting the spine vertebral arch by incision of the right lower back under isoflurane inhalation anesthesia, completely ligating L5 and L6 nerve roots of the spinal nerve, and then suturing the muscular layer and the skin. As a negative control (sham-operation group), the right L5 and L6 nerves were exposed, and then the muscular layer and the skin were sutured similarly without ligation. One week after the nerve ligation, the rats were used to perform the following experiment. […]
For quantitative determination of actin filaments and actin monomers, G-actin/F-actin in vivo assay kit (manufactured by Cytoskeleton Inc.) was used. […] The amount of actin in each of the actin monomer sample and the actin filament sample was measured by Western blotting. […] Luminescence intensity of a band corresponding to actin was quantitatively determined using Image Lab software (manufactured by Bio-Rad). […]

In the case of CN(C)C1CCN(C(=O)C[C@H](O)c2nccn2C)CC1 [Example 7, (S)-1-(4-(dimethylamino)piperidin-1-yl)-3-hydroxy-3-(1-methyl-1H-imidazol-2-yl)propan-1-one], the “specific binding to the membrane fraction prepared from the sciatic nerve, as % of the specific binding to the dorsal root ganglion membrane fraction” value [1] is reported as 42%, the “specific binding to the membrane fraction prepared from the spinal cord, as % of the specific binding to the dorsal root ganglion membrane fraction” value [2] is reported as 23% and the “specific binding to the membrane fraction prepared from the brainstem, as % of the specific binding to the dorsal root ganglion membrane fraction” value [3] is reported as 4.2%. The “specific bindings to the membrane fractions prepared from the other tissues including the brain, as % of the specific binding to the dorsal root ganglion membrane fraction” value [4] was “less than 1%”, the “actin filament/actin monomer ratio compared to the distilled water administration group” value ([5]; oral 60 mg/kg once a day for 2 days, sciatic nerve, p<0.025 Williams) was “significantly reduced” and the “actin filament/actin monomer ratio” value ([5]; oral 6, 20 and 60 mg/kg once a day for 2 days, sciatic nerve 3 hours after last administration, FIG. 3b) was “reduced as the dose of the compound of Example 7 was increased”.
